How the values were obtained:
[1] = biological target: T1, TMPRSS13 (Homo sapiens, UniProt Q9BYE2, K566A/R563A/R565A); experiment: In vitro inhibition assay, recombinant TMPRSS13-AFAAS-6His, Boc-RVRR-AMC; format: biochemical; conditions: dose-response curve, Cheng-Prusoff equation
T1 construct: Shedding of the TMPRSS13 catalytic domain was detected for both constructs in the cell media; made in house; host or cells: Expi293F cells
T1 sequence (Q9BYE2 with tags, fused parts or gaps isoform Q9BYE2-6 limits assumed): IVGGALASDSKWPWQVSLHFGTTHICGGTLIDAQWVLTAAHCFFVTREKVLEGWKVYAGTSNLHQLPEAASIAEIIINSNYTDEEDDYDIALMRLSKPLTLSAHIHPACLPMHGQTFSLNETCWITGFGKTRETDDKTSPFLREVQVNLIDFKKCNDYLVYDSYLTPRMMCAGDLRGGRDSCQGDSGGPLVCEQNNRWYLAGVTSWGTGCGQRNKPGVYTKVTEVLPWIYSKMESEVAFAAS
Method: TMPRSS13-AFAAS-6His was expressed via the Expi293 Expression System Kit (Thermo Fisher Scientific, A14635) according to the manufacturer’s instructions and purified via IMAC chromatography. Briefly, Expi293F cells were transfected for 48 h with the TMPRSS13-AFAAS-6His construct, and media containing the shed recombinant protease was injected on a HisTrap Excel column (Cytiva, 17371206) via an ÄKTA Start protein purification system (Cytiva). The bound proteins were then eluted (20 mM sodium phosphate pH 7.4, 500 mM NaCl, and 500 mM imidazole), and the TMPRSS13-containing fractions were dialysed for 16 h at 4 °C in storage buffer (20 mM sodium phosphate pH 7.4, 150 mM NaCl, and 10% glycerol). Proteins were then concentrated via a 10 kDa Amicon Ultra centrifugal filter (Millipore Sigma, UFC8010) and stored at −80 °C.
(§1) Recombinant TMPRSS13-AFAAS-6His (this study) and matriptase[34] were expressed and purified as described. Recombinant human furin, Factor Xa (R&D Systems) and thrombin (MilliporeSigma) were obtained from commercial sources. Assays were performed in a buffer composed of 50 mM HEPES pH 7.4, 1 mM β-mercaptoethanol, 1 mM CaCl2 and 500 μg/ml BSA for furin and 50 mM HEPES pH 7.4, 150 mM NaCl and 0.1% BSA for other proteases. Assays were performed at room temperature using fluorogenic substrates (Boc-RVRR-AMC for furin and TMPRSS13, Boc-QAR-AMC for other proteases). The enzymatic activity was measured via fluorescence (excitation at 360 nm and emission at 460 nm) at room temperature using an HTX Synergy microplate reader (Agilent). Kis for TMPRSS13 and Factor Xa (FXa) were derived from IC50 dose–response curves using the Cheng-Prusoff equation[35] for reversible competitive inhibitors. For matripase, a plot of the enzyme velocity as a function of the inhibitor concentration was fitted with nonlinear regression analysis via the Morrison Ki equation[36] for competitive tight-binding inhibitors.

[2] = biological target: T2, Factor Xa (Homo sapiens, UniProt P00742); experiment: In vitro inhibition assay, Factor Xa, Boc-QAR-AMC; format: biochemical; conditions: Cheng-Prusoff equation
T2 construct: purchased R&D Systems
T2 sequence (P00742 235-488 limits assumed): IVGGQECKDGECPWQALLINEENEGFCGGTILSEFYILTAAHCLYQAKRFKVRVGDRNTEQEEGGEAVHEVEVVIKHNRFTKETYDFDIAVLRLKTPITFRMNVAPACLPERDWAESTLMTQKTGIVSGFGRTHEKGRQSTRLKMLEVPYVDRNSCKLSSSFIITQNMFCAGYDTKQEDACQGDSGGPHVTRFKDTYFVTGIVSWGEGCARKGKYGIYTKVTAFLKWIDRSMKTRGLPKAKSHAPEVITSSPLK
T2 sequence (P00742 41-179 partner limits assumed): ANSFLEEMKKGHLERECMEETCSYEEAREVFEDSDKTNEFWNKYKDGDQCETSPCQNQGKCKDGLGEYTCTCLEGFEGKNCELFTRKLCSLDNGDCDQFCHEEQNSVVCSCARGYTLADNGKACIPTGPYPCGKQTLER
Method: as §1

[3] = test system: human trypsin; experiment: Proteolysis assay (stability) with human trypsin; format: in vitro ADME; conditions: human trypsin (isolated protease), pH 7.4, compound final conc. 10 µM, 37 °C
Method: For the proteolysis assay, human trypsin (#T6424, Sigma–Aldrich, Saint-Louis, Missouri, USA) was resuspended in 1 mM HCl and 20 mM CaCl2, pH 3, and diluted to a final concentration of 0.1 mg/ml in PBS buffer (pH 7.4, 10 mM PO43-, 150 mM NaCl). The control peptide R8 and the compounds of interest were added to a 96-well plate (37 °C) to a final concentration of 10 µM. Trypsin (0.1 µg/ml) was added to the wells for 0, 0.5, 1, 2, 4 and 6 h. The plate was quenched with AcN/EtOH (1:1) 1% formic acid and 0.25 mM N,N-dimethylbenzamide (IS) and centrifuged at 4 °C.

[4] = in vitro; conditions: final conc. 0.2 mM, 37 °C; for half-life at 0.2 mM: male, Sprague-Dawley, rat, pooled rat plasma (K2EDTA), Mean half-life, Plasma
Excerpt: Adult male Sprague-Dawley rats, weighing between 225 and 300 g (Charles River Laboratories, St. Constant, Canada), were housed in groups of four per double-decker cage on Aspen shavings in a quiet environment. They were maintained under a 12-h light/dark cycle with unrestricted access to food and water. All experimental protocols received approval from the Animal Care Committee of the Université de Sherbrooke, adhering to the Canadian Council on Animal Care guidelines. The procedures also followed the ARRIVE guidelines (Animals in Research: Reporting In Vivo Experiments) and the United States NIH regulations (Ethics approval ID: 2022–3440). To evaluate the stability of compounds in plasma, 6 rats were anaesthetised with 2 L/min oxygen and 5% isoflurane, after which plasma was collected, pooled, and stored frozen until experiments were performed.
For evaluating plasma stability, rats were anaesthetised using a flow of 2 L/min of oxygen combined with 5% isoflurane. Blood was obtained via cardiac puncture from the left ventricle using a 20 G ½ needle, collected in pre-chilled Vacutainer K2EDTA tubes (367861), and maintained on wet ice. The blood was then centrifuged at 2000 xG for 15 min at 4 °C. Plasma samples were pooled from six rats, aliquoted, and stored at −80 °C. […] To terminate the reaction, 140 μL of a 1:1 acetonitrile-ethanol solution containing 0.25 mM N,N-dimethylbenzamide (used as an internal standard) was added. The resulting mixture was transferred onto an Impact Protein Precipitation filter plate (Phenomenex, California), with a 96-well UPLC plate positioned below to collect the filtrates. Both plates were centrifuged at 500 × g for 10 min at 4 °C. The filtrates were diluted with 30 μL of distilled water before analysis using an Acquity UPLC-MS system class H (column Acquity UPLC protein BEH C18 (2.1 mm × 50 mm), 1.7 μm particles, 130 Å pore size). The peptide’s half-life was determined from the degradation profile utilising the exponential one-phase decay function in GraphPad Prism 9. Mass spectra obtained at time points close to the calculated half-life were compared with those at 0 min (plasma inactivated prior to compound addition) to identify cleavage fragments.

| Structure (SMILES) | Ki [1] [nM] | Ki [2] [nM] | half-life at 10 µM [3] [h] | half-life at 0.2 mM [4] [h] | Mean half-life, Plasma ([4]; rat plasma (male)) [h] |
| --- | --- | --- | --- | --- | --- |
| N=C(N)NCCCCC(=O)N[C@@H](CCC(N)=O)C(=O)N[C@@H](CCc1ccccc1)C(=O)N[C@@H](CCCNC(=N)N)C(=O)c1nc2ccccc2s1 [Compound N-0430, (H)-RQhFR-Kbt] | 5.3 | 56.9 ± 9 | 29.5 | 40.8 |  |
| N=C(N)NCCCCC(=O)N[C@@H](CCC(N)=O)C(=O)N[C@@H](Cc1ccccc1)C(=O)N[C@@H](CCCNC(=N)N)C(=O)c1nc2ccccc2s1 [Compound N-0130, (H)-RQFR-Kbt] | 24.6 | 48.2 ± 3.7 | 105 | 79.2 | 78.5 |
